From ChEMBL document CHEMBL5465560, “Selectivity Literature for EUbOPEN Chemogenomic Library” (2024)
Values belong to the compound of their own block, whether it stands above or below them.

How the values were obtained:
[1] = target: Mitogen-activated protein kinase 11 (Homo sapiens) (UniProt Q15759); assay: Selectivity interaction (SelectScreen profiling (Invitrogen)) EUB0000607a MAPK11; conditions: at 2 µM
[2] = target: Serine/threonine-protein kinase 24 (Homo sapiens) (UniProt Q9Y6E0); assay: Selectivity interaction (Upstate Kinase Profiler service (Millipore)) EUB0000056c STK24; conditions: at 1 µM
[3] = target: T1, Mitogen-activated protein kinase kinase kinase kinase 2 (Homo sapiens) (UniProt Q12851); assay: Selectivity interaction (ActivX KiNativ screen (kinase selectivity in THP-1 cell lysates)) EUB0000639a MAP4K2; type: subcellular; conditions: lysate, at 0.01 µM
T1 sequence (whole entry): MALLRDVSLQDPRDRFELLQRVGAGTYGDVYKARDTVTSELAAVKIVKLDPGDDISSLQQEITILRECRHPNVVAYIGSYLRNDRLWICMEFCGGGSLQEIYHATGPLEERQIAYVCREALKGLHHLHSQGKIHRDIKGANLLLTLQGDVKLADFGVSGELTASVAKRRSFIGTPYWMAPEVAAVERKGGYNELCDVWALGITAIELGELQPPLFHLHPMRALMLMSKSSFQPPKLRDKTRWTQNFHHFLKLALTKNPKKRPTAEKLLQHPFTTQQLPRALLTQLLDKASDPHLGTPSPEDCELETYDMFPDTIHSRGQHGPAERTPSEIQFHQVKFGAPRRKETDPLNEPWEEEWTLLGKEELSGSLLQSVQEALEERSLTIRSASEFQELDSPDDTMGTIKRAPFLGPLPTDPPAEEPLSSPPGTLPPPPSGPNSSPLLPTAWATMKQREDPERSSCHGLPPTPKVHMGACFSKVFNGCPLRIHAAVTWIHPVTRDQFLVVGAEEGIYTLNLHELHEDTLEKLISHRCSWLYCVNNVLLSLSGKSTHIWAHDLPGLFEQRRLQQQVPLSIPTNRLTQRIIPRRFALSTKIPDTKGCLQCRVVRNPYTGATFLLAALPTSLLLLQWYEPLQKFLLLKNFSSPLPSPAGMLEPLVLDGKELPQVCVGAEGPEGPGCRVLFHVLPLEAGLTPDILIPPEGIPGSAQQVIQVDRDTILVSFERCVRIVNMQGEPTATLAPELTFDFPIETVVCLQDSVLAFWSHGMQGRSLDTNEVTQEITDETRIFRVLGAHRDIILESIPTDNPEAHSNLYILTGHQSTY

[4] = target: Protein-tyrosine kinase 2-beta (Homo sapiens) (UniProt Q14289); assay: Selectivity interaction (ActivX KiNativ screen (kinase selectivity in THP-1 cell lysates)) EUB0000639a PTK2B; type: subcellular; conditions: lysate
[5] = target: T2, Ephrin type-B receptor 4 (Homo sapiens) (UniProt P54760); assay: Selectivity interaction (ProQinase) EUB0000171b EPHB4
T2 sequence (whole entry): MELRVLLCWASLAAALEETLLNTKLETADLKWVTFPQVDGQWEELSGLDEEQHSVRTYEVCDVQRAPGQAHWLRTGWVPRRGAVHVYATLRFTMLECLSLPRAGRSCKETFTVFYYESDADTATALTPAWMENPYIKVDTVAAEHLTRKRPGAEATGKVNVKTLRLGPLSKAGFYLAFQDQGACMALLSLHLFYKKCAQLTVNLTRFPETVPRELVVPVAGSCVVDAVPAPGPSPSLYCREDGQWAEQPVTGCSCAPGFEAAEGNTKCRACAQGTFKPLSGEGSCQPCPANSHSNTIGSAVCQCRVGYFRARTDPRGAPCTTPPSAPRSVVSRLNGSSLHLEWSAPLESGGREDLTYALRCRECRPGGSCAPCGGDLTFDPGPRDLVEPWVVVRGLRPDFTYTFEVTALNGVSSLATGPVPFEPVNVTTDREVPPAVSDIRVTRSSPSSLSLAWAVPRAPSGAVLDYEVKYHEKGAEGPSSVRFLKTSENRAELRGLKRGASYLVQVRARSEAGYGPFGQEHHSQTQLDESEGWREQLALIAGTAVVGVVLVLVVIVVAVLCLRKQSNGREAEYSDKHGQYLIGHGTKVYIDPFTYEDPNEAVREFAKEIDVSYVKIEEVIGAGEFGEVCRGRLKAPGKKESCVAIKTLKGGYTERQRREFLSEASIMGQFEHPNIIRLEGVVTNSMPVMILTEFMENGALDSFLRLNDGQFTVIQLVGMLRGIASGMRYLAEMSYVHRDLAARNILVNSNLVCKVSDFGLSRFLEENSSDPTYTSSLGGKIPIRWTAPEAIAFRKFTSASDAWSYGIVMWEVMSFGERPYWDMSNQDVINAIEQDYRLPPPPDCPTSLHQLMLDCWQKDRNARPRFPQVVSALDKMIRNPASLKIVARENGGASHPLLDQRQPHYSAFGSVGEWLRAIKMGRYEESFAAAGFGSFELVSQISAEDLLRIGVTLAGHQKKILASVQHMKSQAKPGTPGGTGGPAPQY

[6] = target: Casein kinase II subunit alpha' (Homo sapiens) (UniProt P19784); assay: Selectivity interaction (Ambit KINOMEscan and KiNATiv profiling in Jurkat cells) EUB0000090b CSNK2A2; type: cell-based; conditions: at 1 µM
[7] = target: Cyclin-dependent kinase 11B (Homo sapiens) (UniProt P21127); assay: Selectivity interaction (KinomeScan (DiscoverX)) EUB0001079a CDK11B; conditions: at 1 µM
[8] = target: Diacylglycerol kinase alpha (Homo sapiens) (UniProt P23743); assay: Selectivity interaction (Kinase panel (KiNativ target engagement assay in Jurkat cells)) EUB0001635a DGKA; type: cell-based; conditions: Selectivity number of off-targets 0.0, Selectivity number of targets 233.0, Source Knowledge https://www.sciencedirect.com/science/article/pii/S2451945619300674?via%3Dihub, at 1 µM
Diacylglycerol kinase alpha (Homo sapiens), sequence (P23743 whole entry): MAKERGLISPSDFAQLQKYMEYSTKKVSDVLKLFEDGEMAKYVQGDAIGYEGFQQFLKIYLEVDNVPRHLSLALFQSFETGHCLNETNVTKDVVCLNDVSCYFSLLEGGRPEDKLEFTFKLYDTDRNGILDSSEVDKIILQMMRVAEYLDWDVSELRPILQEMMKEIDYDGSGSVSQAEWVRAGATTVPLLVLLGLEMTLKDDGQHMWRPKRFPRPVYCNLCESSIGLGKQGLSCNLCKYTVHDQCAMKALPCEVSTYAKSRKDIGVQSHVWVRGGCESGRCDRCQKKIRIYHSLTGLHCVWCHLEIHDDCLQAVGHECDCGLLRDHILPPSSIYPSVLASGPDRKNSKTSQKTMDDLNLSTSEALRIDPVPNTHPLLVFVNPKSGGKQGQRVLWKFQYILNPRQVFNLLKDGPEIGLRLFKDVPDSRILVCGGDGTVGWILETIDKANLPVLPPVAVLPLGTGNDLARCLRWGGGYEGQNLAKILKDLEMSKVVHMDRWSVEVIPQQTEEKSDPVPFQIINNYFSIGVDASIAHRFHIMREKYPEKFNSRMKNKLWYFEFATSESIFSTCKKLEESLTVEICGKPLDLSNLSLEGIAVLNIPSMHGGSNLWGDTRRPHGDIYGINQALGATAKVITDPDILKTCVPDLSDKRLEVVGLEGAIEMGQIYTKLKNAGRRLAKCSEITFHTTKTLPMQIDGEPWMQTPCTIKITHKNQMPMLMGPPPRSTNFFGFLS

Protein-tyrosine kinase 2-beta (Homo sapiens), sequence (Q14289 whole entry, looked up): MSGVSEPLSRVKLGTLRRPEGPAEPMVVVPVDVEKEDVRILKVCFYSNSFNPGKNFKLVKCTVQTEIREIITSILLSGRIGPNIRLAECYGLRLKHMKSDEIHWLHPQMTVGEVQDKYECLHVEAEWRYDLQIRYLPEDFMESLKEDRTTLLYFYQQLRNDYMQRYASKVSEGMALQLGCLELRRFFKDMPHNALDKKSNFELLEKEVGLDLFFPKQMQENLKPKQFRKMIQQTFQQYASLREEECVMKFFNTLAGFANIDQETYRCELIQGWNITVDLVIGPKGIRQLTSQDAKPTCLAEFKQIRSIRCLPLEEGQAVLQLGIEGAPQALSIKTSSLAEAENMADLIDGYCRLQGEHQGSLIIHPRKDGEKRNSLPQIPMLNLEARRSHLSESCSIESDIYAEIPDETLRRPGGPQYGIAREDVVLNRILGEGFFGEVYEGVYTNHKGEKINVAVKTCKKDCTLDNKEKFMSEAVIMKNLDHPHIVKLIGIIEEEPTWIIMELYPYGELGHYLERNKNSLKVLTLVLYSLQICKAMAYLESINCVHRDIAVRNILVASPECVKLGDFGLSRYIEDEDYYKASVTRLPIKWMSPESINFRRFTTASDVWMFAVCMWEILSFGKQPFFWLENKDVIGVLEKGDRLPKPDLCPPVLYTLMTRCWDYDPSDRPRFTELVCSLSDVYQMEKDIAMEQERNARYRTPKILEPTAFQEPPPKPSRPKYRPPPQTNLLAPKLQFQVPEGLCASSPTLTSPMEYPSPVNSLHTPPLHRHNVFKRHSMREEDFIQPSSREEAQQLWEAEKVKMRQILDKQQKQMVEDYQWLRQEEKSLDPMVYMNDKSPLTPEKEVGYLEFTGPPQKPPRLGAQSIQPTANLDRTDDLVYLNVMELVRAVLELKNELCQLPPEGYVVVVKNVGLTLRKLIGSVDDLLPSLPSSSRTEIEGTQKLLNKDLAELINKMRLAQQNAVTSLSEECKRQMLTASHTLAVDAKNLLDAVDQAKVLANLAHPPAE
Casein kinase II subunit alpha' (Homo sapiens), sequence (P19784 whole entry, looked up): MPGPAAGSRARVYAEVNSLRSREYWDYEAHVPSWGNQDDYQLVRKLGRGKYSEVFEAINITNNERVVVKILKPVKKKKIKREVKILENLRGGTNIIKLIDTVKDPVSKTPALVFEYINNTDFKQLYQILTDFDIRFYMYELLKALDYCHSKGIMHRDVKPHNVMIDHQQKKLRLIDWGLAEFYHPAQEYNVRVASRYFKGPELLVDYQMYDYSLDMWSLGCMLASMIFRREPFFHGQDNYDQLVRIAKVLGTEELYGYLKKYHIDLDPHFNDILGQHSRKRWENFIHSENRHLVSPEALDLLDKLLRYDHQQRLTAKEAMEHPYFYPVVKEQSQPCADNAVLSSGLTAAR
Mitogen-activated protein kinase 11 (Homo sapiens), sequence (Q15759 whole entry): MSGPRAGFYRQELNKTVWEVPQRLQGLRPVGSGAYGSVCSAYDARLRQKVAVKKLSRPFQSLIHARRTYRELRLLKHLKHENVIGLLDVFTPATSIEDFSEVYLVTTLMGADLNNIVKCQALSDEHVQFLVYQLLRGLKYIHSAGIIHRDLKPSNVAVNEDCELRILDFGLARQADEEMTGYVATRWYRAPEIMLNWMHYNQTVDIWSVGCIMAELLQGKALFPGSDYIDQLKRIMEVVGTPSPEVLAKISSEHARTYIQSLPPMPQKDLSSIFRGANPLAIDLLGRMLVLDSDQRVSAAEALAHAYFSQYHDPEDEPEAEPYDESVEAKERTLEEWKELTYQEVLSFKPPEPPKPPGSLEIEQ
Serine/threonine-protein kinase 24 (Homo sapiens), sequence (Q9Y6E0 whole entry, looked up): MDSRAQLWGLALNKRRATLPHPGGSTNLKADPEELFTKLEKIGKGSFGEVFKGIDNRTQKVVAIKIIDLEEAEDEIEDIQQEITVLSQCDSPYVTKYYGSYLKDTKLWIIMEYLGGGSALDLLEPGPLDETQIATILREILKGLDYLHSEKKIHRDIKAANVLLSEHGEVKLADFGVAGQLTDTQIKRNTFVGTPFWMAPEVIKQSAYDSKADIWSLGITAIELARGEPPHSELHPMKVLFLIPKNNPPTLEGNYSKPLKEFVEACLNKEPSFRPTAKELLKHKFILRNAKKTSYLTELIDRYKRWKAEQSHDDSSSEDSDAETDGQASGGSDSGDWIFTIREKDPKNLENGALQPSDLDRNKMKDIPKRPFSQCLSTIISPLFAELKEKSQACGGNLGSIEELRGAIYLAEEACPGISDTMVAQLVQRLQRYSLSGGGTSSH
Cyclin-dependent kinase 11B (Homo sapiens), sequence (P21127 whole entry): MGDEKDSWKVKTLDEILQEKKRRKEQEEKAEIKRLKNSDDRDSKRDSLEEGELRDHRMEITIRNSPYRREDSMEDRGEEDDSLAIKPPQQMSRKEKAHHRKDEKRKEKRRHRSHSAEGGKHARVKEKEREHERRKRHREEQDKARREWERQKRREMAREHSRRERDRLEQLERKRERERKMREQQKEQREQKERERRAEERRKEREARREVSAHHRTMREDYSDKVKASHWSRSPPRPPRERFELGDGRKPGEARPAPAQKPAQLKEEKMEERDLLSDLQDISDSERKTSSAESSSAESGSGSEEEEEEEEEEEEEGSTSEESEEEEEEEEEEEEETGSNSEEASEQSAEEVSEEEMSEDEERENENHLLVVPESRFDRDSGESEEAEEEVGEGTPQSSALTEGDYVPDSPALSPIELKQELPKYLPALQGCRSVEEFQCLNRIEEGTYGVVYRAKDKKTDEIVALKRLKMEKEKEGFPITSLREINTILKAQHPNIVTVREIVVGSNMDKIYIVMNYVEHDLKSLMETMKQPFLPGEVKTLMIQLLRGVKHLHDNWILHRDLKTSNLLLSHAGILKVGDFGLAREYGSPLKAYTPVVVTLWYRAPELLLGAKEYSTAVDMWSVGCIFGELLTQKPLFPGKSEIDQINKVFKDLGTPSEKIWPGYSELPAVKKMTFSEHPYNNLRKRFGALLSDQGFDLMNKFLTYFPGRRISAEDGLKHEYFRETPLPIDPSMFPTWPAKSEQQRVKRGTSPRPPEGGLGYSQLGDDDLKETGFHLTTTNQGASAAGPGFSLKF

SMILES: CNC(=O)Nc1ccc(-c2nc(N3CC4CCC(C3)O4)c3cnn(C4CCC5(CC4)OCCO5)c3n2)cc1
- % of inhibition [1]: 2%

- % of inhibition [2]: 33%
SMILES: Cc1ccc(-c2ccc3c(ccc4sc5c(c43)NC[C@@H](C)NC5=O)n2)cn1

- % of inhibition [3]: 13.3%
- % of inhibition ([4]; at 0.01 µM): -13.4%
- % of inhibition ([4]; at 0.04 µM): 9.7%
- % of inhibition ([4]; at 0.2 µM): -2.6%
- % of inhibition ([4]; at 1 µM): -0.1%
- % of inhibition ([4]; at 5 µM): -10.1%
SMILES: CC[C@@H]1[C@H](F)C(=O)N[C@@H]1COc1nccc2cc(C(N)=O)c(OC)cc12 [ZIMLOVISERTIB]

- % of control ([5]; at 1 µM): 110%
- % of control ([5]; at 5 µM): 111%
SMILES: C=CC(=O)Nc1cccc(C(=O)Nc2ccc(Nc3cc(-c4[nH]c(SC)nc4C)ccn3)cc2)c1

SMILES: CN(C)C/C=C/C(=O)Nc1ccc(C(=O)N2CCCC(Nc3ncc(Cl)c(-c4c[nH]c5ccccc45)n3)C2)cc1 (stereo not drawn)
- % of control [6]: 89%

SMILES: Nc1cnc(N2CCc3cc(S(=O)(=O)Nc4c(F)cc(Cl)cc4F)cc(N4CCCC4=O)c32)nc1 [TP-020n]
- % of control [7]: 100%

SMILES: C=CC(=O)Nc1ccc(C(=O)Nc2[nH]nc3c2CN(C(=O)N[C@H](CN(C)C)c2ccccc2)C3(C)C)cc1
- % of engagement [8]: -18.9%
